Source: patent publication EP0738149B1 (priority 1994, dated 1995)
Where a name gives a salt, the structure may show the parent alone. Read-outs that look alike come from different tables or passages of the source.

Tests used:
rats [1] = experiment: Maximal electroshock (MES) model in rats, p.o.;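 for all read-outs here: rat MES model gauging antiepileptic efficacy versus generalized and partial seizures after oral dosing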; format: in vivo; conditions: for RATS MES 50: p.o.; for ED50: Rattus norvegicus, po
in vivo = conditions: rat, in vivo, po
Experimental: (§1) Neurotoxicity of the claimed agents was also assessed in mice (i.p. administration) by the rotorod ataxia test and/or in rats (p.o. administration) by positional sense test and gait stance test. […] The term quantitating the neurotoxicity is the medial neurological toxic dose (TD50), was determined in the above tests.

rats [2] = experiment: Neurotoxicity in rats (positional sense test and gait stance test), p.o.; conditions: rats, p.o.
Experimental: as §1

[3] = Neurotoxicity in mice (rotorod ataxia test), i.p.; conditions: mouse, in vivo, ip
Experimental: as §1

mice [4] = experiment: Maximal electroshock (MES) model in mice, i.p.;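 for all read-outs here: Electroshock-induced convulsion model serving to demonstrate antiepileptic efficacy against generalized and partial seizures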; format: in vivo; conditions: for ED50: Mus musculus, ip; for ED50 / MICE MES ED50: Table 15; for MICE MES ED50: i.p.
mice [5] = conditions: for ED50: Mus musculus, ip; for MICE scMet ED50: i.p.
rats [6] = conditions: Rattus norvegicus, po, read-out: RATS scMet ED50
mice [7] = experiment: Neurotoxicity in mice (rotorod ataxia test), i.p.
Experimental: as §1

male ICR albino mice = experiment: Hypobaric hypoxia survival time in mice; format: in vivo
Experimental: Dessicator B was disconnected and allowed to equilibrate with room air whilst dessicator A was evacuated to a pressure of 100mmHg. […] The survival time from the moment of induction of hypoxia to the time of cessation of respiration was recorded for each mouse for a maximum of 15 minutes after which time room air was reintroduced to dessicator B. Survivors were monitored for signs of lethargy or vitality.
Effect of drug treatment was assessed as the percent of the survival time of the drug treated group with respect to the saline injected or vehicle injected control group. Control groups were run twice, before and after each experimental group and consisted of 12-16 mice in groups of 4 mice. Each experimental group always consisted of 4 mice to ensure a constant residual volume of oxygen in all tests. The effect of each dose of test drug was determined in duplicate i.e. two groups of 4 mice.
All drugs were administered intra-peritoneally at the dose indicated one hour prior to exposure to hypoxia.

[8] = tested on: mechanically dissociated neonatal rat cerebellum; experiment: Reversal of NMDA induced cell death in cultures of neonatal rat cerebellum; format: cell-based; conditions: for SURVIVING CELL IN CULTURE: relative to control (100%); for PERCENT PROTECTION: Cell Survival minus the NMDA effect
Experimental: The cerebellum was aseptically dissociated from 6 or 7-day old rat pups and placed in a 15ml sterile plastic conical tube containing 3ml of Dulbecco's modified Eagle's medium (DMEM) with a high glucose concentration ([…]) and 2mM (v/v) L-glutamine and an antibiotic antimitotic mixture. The cerebella were then dissociated after 20-25 passages through a sterile 13 gauge, 10cm long stainless steel needle attached to a 5ml syringe with an inserted 45 micrometer pore nylon sieve. The dissociated cells were centrifuged at 200g for 5 minutes. The supernatant was discarded and the cells resuspended in medium enriched with 15% (v/v) heat inactivated fetal calf serum. Cell viability was determined by the tryptan blue exclusion test.
Cells were plated at a density of 200/mm^2 on poly-L-lysine coated surfaces. Poly-L-lysine coated glass coverslips were prepared at least one hour in advance of plating by immersing sterile coverslips in sterile distilled water solution containing 15 microgram/ml poly-L-lysine, and washing in sterile water just prior to use. The plated cells were covered with enriched medium and incubated at 37°C in an atmosphere of 5% CO2 in air and 97% humidity. After three days in culture, the media was replaced with media containing the desired test compound. Each test compound was tested in duplicate. Toxic-dose response was determined for each compound.
Four groups were run in each set of experiments; • I. Control, consisting of enriched media alone, • II. N-methyl-D-aspartate (NMDA, 1mM for 3 hours) as the cytotoxic challenge, • III. Test compound plus NMDA, and • IV. Positive control, spermine(0.01 micromoles) plus NMDA.
Nerve cell survival was evaluated by phase contrast microscopy and tryptan blue staining after 24 hours.
Surviving cells in culture are measured relative to control (100%), as described above. Percent protection is the Cell Survival for the test compound minus the NMDA effect. Thus, maximal protection is 100% minus 30% NMDA effect i.e. […]. The Effective Protection was calculated as the percent of the Percent Protection (X) divided by the maximal protection value (e.g. X x 100/70).

Male mongolian gerbils = experiment: Global brain ischemia in gerbils (CA1 pyramidal neurons); format: in vivo; conditions: 3 injections, fraction of hippocampi protected from ischemia, 14 days post-ischemia
Experimental: Each artery was clamped for 5 minutes with aneurysm clips to produce global brain ischemia. The anesthesia was discontinued upon clamping. After 5 minutes the clamps were removed and the wound closed with skin clips.
For treatment, the test compound or vehicle were injected intra-peritoneally (ip) in a volume of 50 microliters of solvent per 10g body weight. The first injection was given two minutes after clamp removal, and thereafter daily for the next 2 post-operative days (total of 3 injections).
Seven groups each of 4-8 animals were compared: • I. Control; (sham- or unoperated and saline treated), • II. Vehicle treated, unoperated (when solvent is other than saline), • III. Ischemia - untreated or saline treated), • IV. Ischemia - vehicle treated (when solvent is other than saline), • V. Ischemia - Test compound treated, one sub-group per concentration tested, • VI. Ischemia and pentobarbital (40 mg/kg) as positive control).
Analysis of neuronal damage was performed 14 days post-ischemia by counting pyramidal neurons throughout the CA1 layer of the anterior hippocampus in […] thick (paraffin) coronal brain sections stained with hematoxylin and erosin.
Percent Protection values represent the fraction of hippocampi protected from ischemia in a group of animals treated with the stated dose of compound.

rats [9] = experiment: Closed head injury in rats: motor function (Neurological Severity Status), Experiments 4A-4E
[10] = read-out: RATS MES 50, rats, p.o., Table 15
[11] = Exp 4A, 0.1mg/kg i.p. at 0,4,8 and 12 hours post-trauma
[12] = Exp 4B, 0.1mg/kg once a day for 14 days
[13] = read-out: MICE scMet ED50, mice, i.p., Table 16

CN(C)C1CCc2ccccc21 (racemic) [Example 15, (rac)-N,N-Dimethyl-1-aminoindan.HCl]
RATS MES 50 (rats [1]; Table 15): 50 mg/kg
TD50 (in vivo): > 50 mg/kg
RATS TD50 (rats [2]; Table 16): >50 mg/kg
TD50 ([3]; MICE TD50, mice, Table 15): < 100 mg/kg
TD50 ([3]; MICE TD50, mice, Table 16): < 100 mg/kg

C#CCN[C@H]1CCc2ccccc21.CS(=O)(=O)O [H, (S)-N-propargyl-1-aminoindan mesylate salt]
ED50 (rats [1]; [10]): ≤ 50 mg/kg
ED50 (mice [4]): ≤ 50 mg/kg
ED50 (mice [5]; read-out: MICE scMet ED50): > 200 mg/kg

NC(=O)CN[C@@H]1CCc2ccccc21 [Example 1, (R)-N-(2-Aeetamido)-1-aminoindan.HCl]
RATS MES 50 (rats [1]; Table 15): 50 mg/kg
ED50 (mice [4]): 77 mg/kg
TD50 (in vivo): > 50 mg/kg
RATS TD50 (rats [2]; Table 16): >50 mg/kg
TD50 ([3]; MICE TD50, mice, Table 15): 198 mg/kg
TD50 ([3]; MICE TD50, mice, Table 16): 198 mg/kg
ED50 (mice [5]; read-out: MICE scMet ED50): > 200 mg/kg

C#CCN[C@@H]1CCc2ccccc21.Cl [E, (R)-N-propargyl-1-aminoindan HCl salt]
ED50 (rats [1]; [10]): < 50 mg/kg
ED50 (mice [4]): 79 mg/kg
ED50 (rats [6]): > 154 mg/kg

Cl.NC(=O)CN[C@@H]1CCc2ccccc21 [D, (R)-Indanylglycinamide-HCl salt]
RATS MES 50 (rats [1]; Table 15): 105 mg/kg
MICE MES ED50 (mice [4]): 83 mg/kg
RATS TD50 (rats [2]; Table 15): >180 mg/kg
RATS TD50 (rats [2]; Table 16): >180 mg/kg
MICE TD50 (mice [7]; mice, i.p., Table 15): 127 mg/kg
MICE TD50 (mice [7]; mice, i.p., Table 16): 127 mg/kg
MICE scMet ED50 (mice [5]; Table 16): >130 mg/kg

CN[C@H]1CCc2ccccc21 [Example 14, (S)-N-Methyl-1-aminoindan.HCl]
TD50 (in vivo): > 142 mg/kg
RATS TD50 (rats [2]; Table 16): >142 mg/kg
TD50 ([3]; MICE TD50, mice, Table 15): 100 mg/kg
TD50 ([3]; MICE TD50, mice, Table 16): 100 mg/kg

N[C@H]1CCc2ccccc21 [SAI, (S)-1-aminoindan]
ED50 (rats [1]; read-out: RATS MES 50): 17 mg/kg
TD50 (in vivo): > 500 mg/kg
RATS TD50 (rats [2]; Table 16): >500 mg/kg
TD50 [3]: 25 mg/kg
MICE TD50 (mice [7]; mice, i.p., Table 16): 25 mg/kg
PROTECTION % OF RESPECTIVE CONTROL (male ICR albino mice; 50 mg/kg ip one hour prior to hypoxia): 174±39 % OF RESPECTIVE CONTROL
PROTECTION % OF RESPECTIVE CONTROL (male ICR albino mice; 100 mg/kg ip one hour prior to hypoxia): 404±244 % OF RESPECTIVE CONTROL
PROTECTION % OF RESPECTIVE CONTROL (male ICR albino mice; dose cell empty (line below 50 mg/kg ip)): 264±66 % OF RESPECTIVE CONTROL
EFFECTIVE PROTECTION ([8]; separate experiment, Maximum Protection possible 90%, 0.01 µM): 43%
EFFECTIVE PROTECTION ([8]; separate experiment, Maximum Protection possible 90%, 0.05 µM): 57%
PERCENT PROTECTION (Male mongolian gerbils; 0.1 mg/kg ip): 0%
PERCENT PROTECTION (Male mongolian gerbils; 1.0 mg/kg ip): 50.0%
PERCENT PROTECTION (Male mongolian gerbils; 10.0 mg/kg ip): 75.0%
NSS 1hr (rats [9]; [11]): 16.4
NSS 24hr (rats [9]; [11]): 10.8
ΔNSS (rats [9]; Exp 4A, 0.1mg/kg i.p. at 0,4,8 and 12 hours post-trauma, change 1 hour to 24 hours): 5.6±0.5
NSS at 1hr (rats [9]; [12]): 16.6±0.3
ΔNSS at 24hr (rats [9]; [12]): 5.5±0.4
ΔNSS at 48hr (rats [9]; [12]): 6.8±2.7
ΔNSS at 7d (rats [9]; [12]): 8.3±1.0
ΔNSS at 14d (rats [9]; [12]): 9.5±1.0

NC(=O)CNC1CCc2ccccc21 (racemic) [Example 3, (rac)-N-(2-Acetamido)-1-aminoindan.HCl]
RATS MES 50 (rats [1]; Table 15): <50 mg/kg
ED50 (mice [4]): 83 mg/kg
MICE MES ED50 (mice [4]): <100 mg/kg
TD50 (in vivo): > 50 mg/kg
TD50 ([3]; MICE TD50, mice, Table 15): 127 mg/kg
TD50 ([3]; MICE TD50, mice, Table 16): 127 mg/kg
MICE TD50 (mice [7]; mice, i.p., Table 15): >100 mg/kg
MICE TD50 (mice [7]; mice, i.p., Table 16): 126 mg/kg
MICE scMet ED50 (mice [5]; Table 16): 36 mg/kg
MICE scMet ED50 (mice [5]; Table 16, listed as 3*): >130 mg/kg

Cl.N[C@@H]1CCc2ccc(O)cc21 [Example 35, (R)-6-Hydroxy-1-aminoindan.HCl]
SURVIVING CELL IN CULTURE ([8]; 0.005 µM + NMDA 1mM for 3 hours): 60%
PERCENT PROTECTION ([8]; 0.005 µM + NMDA): 30%
EFFECTIVE PROTECTION ([8]; 0.005 µM + NMDA, X x 100/70): 43%
SURVIVING CELL IN CULTURE ([8]; 0.010 µM + NMDA 1mM for 3 hours): 34%
PERCENT PROTECTION ([8]; 0.010 µM + NMDA): 4%
EFFECTIVE PROTECTION ([8]; 0.010 µM + NMDA, X x 100/70): 6%
SURVIVING CELL IN CULTURE ([8]; 0.100 µM + NMDA 1mM for 3 hours): 30%
PERCENT PROTECTION ([8]; 0.100 µM + NMDA): 0%
EFFECTIVE PROTECTION ([8]; 0.100 µM + NMDA, X x 100/70): 0%
PERCENT PROTECTION (Male mongolian gerbils; 0.1 mg/kg ip): 25.0%
PERCENT PROTECTION (Male mongolian gerbils; 1.0 mg/kg ip): 37.5%
PERCENT PROTECTION (Male mongolian gerbils; 10.0 mg/kg ip): 37.5%

O=C(NC1CCc2ccccc21)c1ccccc1 (racemic) [Example 46, (rac)-N-Benzoyl-1-aminoindan]
ED50 (mice [4]): 82 mg/kg
TD50 ([3]; MICE TD50): 500 mg/kg
MICE TD50 (mice [7]; mouse, in vivo, ip): >500 mg/kg
ED50 (mice [5]; [13]): > 500 mg/kg

NC(=O)CNC1CCc2ccc(F)cc21 (racemic) [Example 5, (rac)-6-Fluoro-N-(2-acetamido)-1-aminoindan.HCl]
ED50 (mice [4]): < 100 mg/kg
MICE MES ED50 (mice [4]): 58 mg/kg
activity in the MES model in mice (mice [4]; statement in words): showed activity
TD50 ([3]; MICE TD50, mice, Table 16): 138 mg/kg
MICE TD50 (mice [7]; mice, i.p., Table 15): >300 mg/kg
ED50 (mice [5]; [13]): > 200 mg/kg

NC1CCc2ccccc21 (racemic) [A, 1-aminoindan]
ED50 (rats [1]; read-out: RATS MES 50): 36 mg/kg
TD50 (in vivo): > 168 mg/kg
RATS TD50 (rats [2]; Table 16): >168 mg/kg
TD50 [3]: > 100 mg/kg
MICE TD50 (mice [7]; mice, i.p., Table 16): >100 mg/kg
